# Measurements taken from PMC9669616, “The recommended dosage regimen for caspofungin in patients with higher body weight or hypoalbuminaemia will result in low exposure: Five years of data based on a population pharmacokinetic model and Monte-Carlo simulations” (Frontiers in Pharmacology, 2022).
# Read-outs that look alike come from different tables or passages of the source.
# Legend:
# [1] = cited from earlier work
# From the text: Safety also needs to be considered when increasing the caspofungin exposure, because any harm to the patient should be minimal.
# [2] = system: ALB; details: cited from earlier work
# From the text: The final general and ICU-subgroup PPK models of caspofungin were used for the simulation study to evaluate the degree of exposure. A MCS method published before ([Pfaller et al., 2006]) was used for analyzing the probability of target attainment (PTA) and cumulative fraction of response (CFR) following various caspofungin dosage regimens in all patients and ICU patients. […] Caspofungin was extensively bound to ALB (97%) ([Stone ...
# [3] = general population pharmacokinetic (PPK) model, all patients; assay type: in vivo, human; design: AUC: concentration or dose not given beside the values; details: for AUC / clearance: general PPK model, mean ± SD (range)
# Protocol: The patients for the general PPK model came from a single-center, and the study was conducted from June 2014 to June 2019 at the First Affiliated Hospital of Xi’an Jiaotong University. Patients who had been diagnosed with confirmed or probable candidiasis and been treated with caspofungin were included in the study. The identification of infection was according to the IFIs Cooperative Group and the National Institute of Allergy and Infectious Diseases Mycoses Study Group criteria ([De Pauw et al., 2008]). All patients were divided into four groups (ICU patients, SOT patients, HEMT patients, and other patients from respiratory department). Caspofungin was administered intravenously over 1 h. Most of the patients received the standard dosage regimen of 70/50 mg. Patients with hepatic insufficiency (Child-Pugh B) received a reduced dosage regimen of 70/35 mg and patients with body weight (WT) > 75 kg received an increased dosage regimen of 70/70 mg. The study protocol was approved by the institutional review board of the teaching hospital (No.XJTU1AF2017LSK-28). All subjects signed the informed consent before any screening item being performed. History of hypersensitivity, severe intolerance to caspofungin, other constituents change resulted from caspofungin, age <18 years and pregnancies were excluded in the study.
# Factors which may influence the PK parameters of caspofungin were collected for the patients of the general PPK model from the teaching hospital. The factors included demographic factors (sex, age and WT); medical characteristics [carrier mediated transportation (CMT), surgical operation (SOP), baseline disease, organ support therapy]; laboratory data [red blood cells, hemoglobin, hematocrit, white blood cell, lymphocyte, neutrophile, platelets, alanine aminotransferase, aspartate transaminase, alkaline phosphatase, gamma-glutamyl transpeptidase, total bilirubin, albumin (ALB), blood urea nitrogen, uric acid, serum creatinine acid, creatinine clearance rate]; concomitant medications (immunosuppressants, glucocorticoid, antimicrobial agents and antivirals) and other related factors. Because we could not obtain all values of ICU patients for the seven literature studies, only factors which may have a great influence on the PK of caspofungin, such as sex, age, WT, dosage and method of administration, ALB concentrations and whether concomitant continuous renal replacement therapy (CRRT) of ICU patients from the teaching hospital and other seven studies were collected for the construction of the ICU-subgroup PPK model. The selection criteria were based on the results obtained from previous studies of factors influencing the caspofungin plasma concentration ([Spriet et al., 2009]; [Spriet et al., 2011]; [Weiler et al., 2013]; [Muilwijk et al., 2014]; [Sinnollareddy et al., 2015]; [Roger et al., 2017]; [van der Elst et al., 2017]). […] Combined with the clinical situation, the ALB and WT were converted into dichotomous variables according to whether the ALB <35 g/L or ≥35 g/L and whether the WT < 70 kg or ≥70 kg, respectively.
# We collected the pooled data of caspofungin plasma samples from patients at the teaching hospital who received caspofungin prevention or treatment therapies from June 2014 to June 2019. Caspofungin plasma C min samples were collected at interval windows of 22–24 h post-dose, while other caspofungin plasma samples were collected at interval windows of 0–12 h and 12–22 h post-dose. The caspofungin plasma concentrations from the other seven studies of ICU patients—which included both dense sampling and sparse sampling—were directly collected from the relevant published papers, and all related caspofungin plasma concentrations were collected ([Spriet et al., 2009]; [Spriet et al., 2011]; [Weiler et al., 2013]; [Muilwijk et al., 2014]; [Sinnollareddy et al., 2015]; [Roger et al., 2017]; [van der Elst et al., 2017]). […]
# [4] = healthy subjects; ref Stone et al., 2002; cited from earlier work
# From the text: Van den Elst et al. found the caspofungin exposure in ICU patients was low compared with that in healthy volunteers and other (non)critically ill patients ([van der Elst et al., 2017]). Many factors could influence the caspo ...
# [5] = cited from earlier work; remark: listed apart in the source
# From the text: Van den Elst et al. found the caspofungin exposure in ICU patients was low compared with that in healthy volunteers and other (non)critically ill patients ([van der Elst et al., 2017]).
# [6] = system: C. parapsilosis; details: ref Li et al., 2013; cited from earlier work
# From the text: (§1) The first goal of this study was to determine whether the contemporary dosage regimens for caspofungin can achieve the target PK/PD index against Candida isolates in all patients and especially in ICU patients. […] At present, the relationship between caspofungin Cmax and toxicity remains poorly clarified ([Kim et al., 2022]). In this study, we only used the fAUC/MIC as caspofungin PK/PD target for we could get th ...
# [7] = system: C. glabrata; details: ref Li et al., 2013; cited from earlier work
# From the text: as §1
# [8] = system: C. albicans; details: ref Li et al., 2013; cited from earlier work
# From the text: as §1
# [9] = all patients n = 299, final model
# [10] = human, plasma, iv, ICU patients of the teaching hospital
# [11] = human, plasma, iv, all patients n = 299
# [12] = human, plasma, iv, hematopathy patients
# [13] = human, plasma, iv, other patients
# [14] = human, plasma, iv, transplant (SOT) patients
compound,measurement,setting,value
CC[C@H](C)C[C@H](C)CCCCCCCCC(=O)N[C@H]1C[C@@H](O)[C@@H](NCCN)NC(=O)[C@@H]2[C@@H](O)CCN2C(=O)[C@H]([C@H](O)CCN)NC(=O)[C@H]([C@H](O)[C@@H](O)c2ccc(O)cc2)NC(=O)[C@@H]2C[C@@H](O)CN2C(=O)[C@H]([C@@H](C)O)NC1=O [caspofungin],tolerability,"[1]; 150 mg daily for a median of 24.5 days, ref Cornely et al., 2011",well tolerated without dose-limiting toxicity
same,tolerability,"[1]; patients with invasive candidiasis, 150 mg daily, mean duration 14.2 days, ref Betts et al., 2009",well tolerated
same,bound to ALB,"[2]; ref Stone et al., 2004",97%
same,protein binding value,"[2]; used to calculate free drug concentrations in the simulation, ref Andes et al., 2010",97%
same,"θ1, typical population value of CL",[3]; [9],0.32 L/h
same,"θ4, influence of ALB (<35 g/L) on V",[3]; [9],0.49
same,"θ6, influence of WT (≥70 kg) on V",[3]; [9],0.24
same,"θ4, influence of ALB (<35 g/L) on V","[3]; all patients, bootstrap, lower boundary of 95% CI",0.25
same,"θ4, influence of ALB (<35 g/L) on V","[3]; all patients, bootstrap, upper boundary of 95% CI",0.73
same,AUC,[3]; [10],101 µg·h/mL
same,clearance,[3]; [10],7.83 mL/min
same,AUC,[3]; [11],126 µg·h/mL
same,clearance,[3]; [11],7 mL/min
same,AUC,[3]; [12],118 µg·h/mL
same,clearance,[3]; [12],7.5 mL/min
same,AUC,[3]; [13],120 µg·h/mL
same,clearance,[3]; [13],6.83 mL/min
same,AUC,[3]; [14],136 µg·h/mL
same,clearance,[3]; [14],6.67 mL/min
same,Vd,"[3]; human, plasma, iv, all patients n = 299, final model, read-out: θ2, typical population value of V",13.3 L
same,"plasma trough concentration (C min), range",[4],1.12 to 1.78 mg/L
same,"CL, typical value","[5]; ICU patients, day 1, ref Borsuk-De Moor et al., 2020",0.563 L/h
same,"CL, typical value","[5]; ICU patients, day 2, ref Borsuk-De Moor et al., 2020",0.737 L/h
same,"CL, typical value","[5]; ICU patients, day 3, ref Borsuk-De Moor et al., 2020",1.01 L/h
same,decrease in caspofungin exposure,"[5]; ICU patients, increasing clearance with subsequent doses, ref Borsuk-De Moor et al., 2020",> 20%
same,CL,"[5]; ICU patients, ref Martial et al., 2016",0.55 L/h
same,CL,"[5]; critically-ill Chinese patients, ref Li et al., 2021",0.32 L/h
same,CL,"[5]; general patients, ref Wurthwein et al., 2012",0.46 L/h
same,CL,"[5]; general patients, ref Wurthwein et al., 2013",0.40 L/h
same,"MIC, mean",[6],1.5 mg/L
same,"MIC, range",[6],0.38 to 2 mg/L
same,"MIC, mean",[7],0.25 mg/L
same,"MIC, range",[7],0.047 to 0.38 mg/L
same,"MIC, mean",[8],0.19 mg/L
same,"MIC, range",[8],0.032 to 0.38 mg/L
